± gives the expanded uncertainty stated by the source.
Conditions: 101.33 kPa, Crystal, Vacuum adiabatic calorimetry

Cc1cc2nc3c(=O)[nH]c(=O)nc-3n(C[C@H](O)[C@H](O)[C@H](O)CO)c2cc1C [riboflavin]
Conditions | molar entropy [J/K/mol]
1 K | 0.0261 ± 0.015
2 K | 0.105 ± 0.017
3 K | 0.235 ± 0.019
4 K | 0.418 ± 0.021
5 K | 0.653 ± 0.024
6 K | 0.941 ± 0.028
7 K | 1.28 ± 0.032
8 K | 1.66 ± 0.036
9 K | 2.1 ± 0.041
10 K | 2.58 ± 0.046
15 K | 5.898 ± 0.076
20 K | 10.48 ± 0.11
25 K | 15.97 ± 0.13
30 K | 22.23 ± 0.13
35 K | 29.06 ± 0.15
40 K | 36.3 ± 0.17
45 K | 43.84 ± 0.19
50 K | 51.59 ± 0.22
60 K | 67.55 ± 0.26
70 K | 83.87 ± 0.31
80 K | 100.3 ± 0.4
90 K | 116.8 ± 0.5
100 K | 133.4 ± 0.5
110 K | 149.9 ± 0.5
120 K | 166.2 ± 0.6
130 K | 182.4 ± 0.6
140 K | 198.4 ± 0.6
150 K | 214.3 ± 0.6
160 K | 230.1 ± 0.6
170 K | 245.7 ± 0.7
180 K | 261.3 ± 0.7
190 K | 276.8 ± 0.7
200 K | 292.2 ± 0.7
210 K | 307.5 ± 0.8
220 K | 322.7 ± 0.8
230 K | 337.9 ± 0.8
240 K | 353 ± 0.8
250 K | 368 ± 0.9
260 K | 383 ± 0.9
270 K | 397.9 ± 0.9
273.15 K | 402.6 ± 0.9
280 K | 412.8 ± 0.9
290 K | 427.7 ± 0.9
298.15 K | 439.8 ± 1
310 K | 457.3 ± 1
320 K | 472.1 ± 1
322 K | 475 ± 1

From the NIST ThermoML archive (doi:10.1016/j.tca.2013.09.032)
